Among the test systems are RXF 393 renal; MDA-MB-435; RPMI-8226 leukemia; T-47D breast; BT-549 breast; OVCAR-8 ovarian; NCI-H522 lung; TK-10 renal; 786-0 renal; OVCAR-4 ovarian.
What all share (test): NCI anticancer screen, dose series, 48 h

The structures appear in SMILES notation. “And” between values parts separate entries of the source, which are not always exact repeats. Equal entries are not always repeated.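 Each compound was tested at five concentrations against cells in 96-well plates for 48 hours. Here, GI50 denotes the concentration required for 50% inhibition of growth. Definition used: TGI = concentration required for complete inhibition of growth.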

As to `CC(=O)OCC1OC(SC2=NC(=O)CS2)C(OC(C)=O)C(OC(C)=O)C1OC(C)=O` (centres undefined), the TGI with RXF 393 renal is above 100 µM; in the experiment with MDA-MB-435 it was above 100 µM; with RPMI-8226 leukemia, 90 µM and > 100 µM; in the experiment with T-47D breast, above 100 µM; in the experiment on BT-549 breast it was above 100 µM; in the experiment with OVCAR-8 ovarian, above 100 µM. For the same compound, the TGI with NCI-H522 lung, in the experiment with TK-10 renal and in the experiment on 786-0 renal was above 100 µM each time.
As to `CCCC1=C(OC)C(=O)c2c(C)cc(Cl)nc2C1=O`, the TGI with RXF 393 renal came to 20.2 µM; in the experiment on MDA-MB-435, 3.45 µM; in the experiment with RPMI-8226 leukemia, 5.98 µM; with OVCAR-4 ovarian, 19.5 µM; in the experiment on T-47D breast it was 9.83 µM; with BT-549 breast it was 26.5 µM. Moreover, the TGI is 23.7 µM in the experiment with OVCAR-8 ovarian, 8.06 µM in the experiment with NCI-H522 lung, 34.5 µM with TK-10 renal and 5.23 µM with 786-0 renal.
Take `CC(C)OP(=O)(OC(C)C)C(C(C)C)N(C)C(N)=NC#N` (centres undefined): the TGI in the experiment with RXF 393 renal, with MDA-MB-435, in the experiment on RPMI-8226 leukemia, with OVCAR-4 ovarian, in the experiment with T-47D breast and in the experiment with BT-549 breast was above 100 µM each time. Further, the TGI in the experiment on OVCAR-8 ovarian, in the experiment on NCI-H522 lung and in the experiment with TK-10 renal was above 100 µM throughout.
On to `O=C1C(N2CCN(CCOCCO)CC2)=C(Cl)C(=O)c2ncccc21`, for which the TGI with RXF 393 renal was 35.1 µM; with RPMI-8226 leukemia it was 47.8 µM; in the experiment with OVCAR-4 ovarian, 34.8 µM; in the experiment on T-47D breast it was 6.75 µM; in the experiment with BT-549 breast, 8.33 µM; with OVCAR-8 ovarian it was 39.4 µM. Further, the TGI is 4.22 µM and 32.6 µM with NCI-H522 lung; 48.5 µM in the experiment with TK-10 renal; 36 µM in the experiment on 786-0 renal. Also, the GI50 with MDA-MB-435 is 18.5 µM; in the experiment with NCI-H522 lung, 17.7 µM.
Turning to `Cc1cc(C)nc(NS(=O)(=O)c2ccc(NNc3c4ccccc4nc4c(C(=O)Nc5ccc(S(=O)(=O)Nc6cc(C)on6)cc5)cccc34)cc2)n1`, the TGI in the experiment with RXF 393 renal, in the experiment with MDA-MB-435, in the experiment on RPMI-8226 leukemia, in the experiment on OVCAR-4 ovarian, in the experiment on T-47D breast and in the experiment on BT-549 breast was above 100 µM each time. Moreover, the TGI in the experiment on OVCAR-8 ovarian is above 100 µM; in the experiment with NCI-H522 lung it was 82.1 µM; in the experiment with TK-10 renal, above 100 µM; in the experiment with 786-0 renal, above 100 µM.
Turning to `Oc1cccc2c(Br)ccnc12`, the TGI in the experiment on RXF 393 renal was 32.4 µM; with MDA-MB-435 it was 34.3 µM; in the experiment with RPMI-8226 leukemia, 4.72 µM; with OVCAR-4 ovarian, 10.2 µM; with T-47D breast, above 51.5 µM; with BT-549 breast, above 45.7 µM. The TGI is above 36.2 µM in the experiment with OVCAR-8 ovarian, 17.1 µM with NCI-H522 lung, above 100 µM in the experiment with TK-10 renal and above 100 µM in the experiment with 786-0 renal.
Take `C=CC(C)(C)/C=C/c1ccc(O)cc1`: the TGI in the experiment with RXF 393 renal is above 100 µM; with MDA-MB-435, above 100 µM; in the experiment with RPMI-8226 leukemia, 70.1 µM; in the experiment on OVCAR-4 ovarian, above 100 µM; in the experiment on T-47D breast it was 95 µM; in the experiment on BT-549 breast, above 100 µM. For the same compound, the TGI with OVCAR-8 ovarian, in the experiment on NCI-H522 lung, in the experiment with TK-10 renal and in the experiment with 786-0 renal was above 100 µM each time.
With `O=C1C=CC(=O)c2c(O)c(N3CCOCC3)c(Cl)c(O)c21`, the TGI was 0.464 µM in the experiment with RXF 393 renal; 0.406 µM in the experiment with MDA-MB-435; above 10 µM with RPMI-8226 leukemia; 0.663 µM in the experiment on OVCAR-4 ovarian; 4.36 µM with T-47D breast; 0.329 µM in the experiment on BT-549 breast. In addition, the TGI in the experiment on OVCAR-8 ovarian stood at 1 µM; with NCI-H522 lung, 0.83 µM; in the experiment on TK-10 renal it was 1.79 µM; in the experiment on 786-0 renal it was 0.84 µM.
With `COc1cccc(NC(=O)CC(=O)n2nc(-c3ccccc3)c(N=Nc3ccc(Cl)cc3)c2-c2ccccc2)c1`, the TGI in the experiment on RXF 393 renal was 75.9 µM; in the experiment with MDA-MB-435, above 100 µM; in the experiment with RPMI-8226 leukemia, above 100 µM; in the experiment with OVCAR-4 ovarian, above 100 µM; in the experiment on T-47D breast, above 100 µM; in the experiment on BT-549 breast, 58.6 µM. Further, the TGI in the experiment with OVCAR-8 ovarian is 68.3 µM; in the experiment with NCI-H522 lung, 59.8 µM; with TK-10 renal, above 100 µM; in the experiment with 786-0 renal, 64.4 µM.
For `CC(C)[C@H](C)/C=C/[C@@H](C)C1CC[C@H]2[C@@]34C=C[C@]5(C[C@@H](O)CC[C@]5(C)[C@H]3CC[C@]12C)OO4` (some centres undefined), the TGI in the experiment with RXF 393 renal is above 100 µM; in the experiment with MDA-MB-435, 91.6 µM; in the experiment with OVCAR-4 ovarian it was above 100 µM; in the experiment with T-47D breast, above 100 µM; in the experiment on BT-549 breast it was 92.7 µM; with OVCAR-8 ovarian it was 66.4 µM. In addition, the TGI was above 100 µM in the experiment on TK-10 renal and 47.7 µM with 786-0 renal.
Consider `CCOC(=O)c1cc2c3c(c(C(C)=O)c(OC)c2[nH]1)N(C(=O)CC)CC3`, for which the TGI in the experiment with RXF 393 renal is 37.2 µM; with MDA-MB-435 it was 50.3 µM; in the experiment on RPMI-8226 leukemia, 26.2 µM; in the experiment on OVCAR-4 ovarian, 40.9 µM; in the experiment on T-47D breast it was 45.4 µM; in the experiment on BT-549 breast, 47.1 µM. For the same compound, the figures for the TGI with OVCAR-8 ovarian and in the experiment on 786-0 renal were 46.9 µM and 34.9 µM, respectively.
In the case of `COc1cc(S(=O)(=O)Nc2ccc(-c3csc(N4C(=O)C(Cl)C4c4ccccc4O)n3)cc2)ccc1Cl` (centres undefined), the TGI is 52.6 µM in the experiment on RXF 393 renal; above 100 µM with MDA-MB-435; 83.9 µM with RPMI-8226 leukemia; 70 µM in the experiment with OVCAR-4 ovarian; 29.5 µM in the experiment on T-47D breast; above 100 µM with BT-549 breast. The TGI is above 100 µM in the experiment on OVCAR-8 ovarian, 3.48 µM in the experiment on NCI-H522 lung and above 100 µM in the experiment with 786-0 renal.
`NC1CCCCC1NCCNC1CCCCC1N` (centres undefined): the TGI in the experiment with RXF 393 renal, in the experiment with MDA-MB-435, in the experiment with RPMI-8226 leukemia, with OVCAR-4 ovarian, with T-47D breast and in the experiment on BT-549 breast was above 100 µM each time. The TGI in the experiment with OVCAR-8 ovarian, with NCI-H522 lung, in the experiment with TK-10 renal and in the experiment with 786-0 renal was above 100 µM throughout.

(Values after PubChem BioAssay (NCI).)
